Measured values as given in the NIST ThermoML archive (doi:10.1016/j.fluid.2012.03.005).

Settings: for surface tension liquid-gas: Pendant drop shape; for mass density: 101.33 kPa, Liquid, Vibrating tube method

CCCCCCCCCCCCCC[P+](CCCCCC)(CCCCCC)CCCCCC.[Br-] [tetradecyltrihexylphosphonium bromide]
Settings | mass density [kg/m3] | surface tension liquid-gas [mN/m]
293.15 K | 961.7 | 29.97
297.15 K | 959.2 | –
298.15 K | 958.6 | 29.32
301.15 K | 956.7 | –
303.15 K | 955.5 | 28.94
305.15 K | 954.3 | –
308.15 K | 952.4 | 28.53
309.15 K | 951.8 | –
313.15 K | 949.3 | 28.15
317.15 K | 946.9 | –
318.15 K | 946.2 | 27.81
321.15 K | 944.4 | –
323.15 K | 943.1 | 27.46
325.15 K | 941.9 | –
328.15 K | 940.1 | 27.12
329.15 K | 939.4 | –
333.15 K | 937 | 26.78
337.15 K | 934.6 | –
338.15 K | 934 | 26.57
341.15 K | 932.1 | –
343.15 K | 930.9 | 26.24
345.15 K | 929.7 | –
